Experimental data as given in patent US5476944A, “Derivatives of cyclic phenolic thioethers” (G. D. Searle & Co., priority 1994, dated 1995).
pIC50: −log10 of the molar value.

How the values were obtained:
COX-II = molecular target: T1, COX-II (Homo sapiens, UniProt P35354); assay: Human Enzyme Assay, recombinant COX-II (PGE2 ELISA); format: biochemical
T1 construct: made in house; host or cells: SF9 insect cells, recombinant baculovirus (pVL1393); coding fragment from Cayman Chemical
T1 sequence (P35354 18-604): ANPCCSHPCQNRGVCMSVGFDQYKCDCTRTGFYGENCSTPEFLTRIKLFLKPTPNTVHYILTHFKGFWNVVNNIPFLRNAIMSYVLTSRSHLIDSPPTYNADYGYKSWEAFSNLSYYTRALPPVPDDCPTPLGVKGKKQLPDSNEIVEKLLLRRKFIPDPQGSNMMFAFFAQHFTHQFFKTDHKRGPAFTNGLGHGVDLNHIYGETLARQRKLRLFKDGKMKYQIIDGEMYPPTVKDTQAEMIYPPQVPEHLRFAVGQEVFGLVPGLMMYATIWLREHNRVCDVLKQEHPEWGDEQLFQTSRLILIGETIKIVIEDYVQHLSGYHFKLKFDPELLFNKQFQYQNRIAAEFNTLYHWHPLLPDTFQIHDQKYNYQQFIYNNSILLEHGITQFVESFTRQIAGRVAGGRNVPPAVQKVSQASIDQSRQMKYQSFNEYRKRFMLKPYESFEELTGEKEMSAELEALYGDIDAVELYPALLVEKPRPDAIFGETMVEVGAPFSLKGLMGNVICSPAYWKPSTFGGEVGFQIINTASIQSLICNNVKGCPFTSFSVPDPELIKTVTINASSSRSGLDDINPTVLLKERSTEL
Protocol: (§1) The compounds of the invention are evaluated with respect to COX-I and COX-II activity in vitro using an enzyme based assay according to the following assay procedure.
(§2) (a) Preparation of Recombinant COX Baculoviruses
(§3) A 2.0 kb fragment containing the coding region for either human or murine COX-I (Caymen Chemical, Ann Arbor, Mich.), or human or murine COX-II (Caymen Chemical, Ann Arbor, Mich.), was cloned into a BamH1 site of the baculovirus transfer vector pVL1393 (Invitrogen, Palo Alto, Calif.) to generate a baculovirus transfer vector. Recombinant baculoviruses were isolated by transfecting 4 μg of baculovirus transfer vector DNA into SF9 cells (2×10e8) (Invitrogen, Palo Alto, Calif.) along with 200 ng of linearized bacium by the phosphate method. See M. D. Summers et al., "A Manual of Methods for Baculovirus Vectors and Insect Cell Culture Procedure," TEXAS AGRICULTURE EXPERIMENTAL STATION BULLETIN, No. 1555 (1987), which is incorporated herein by reference. Recombinant viruses were purified by three rounds of plaque purification, and high titer (10e7-10e8 pfu/ml) stocks of virus were prepared. For large scale production, SF9 insect cells (Invitrogen, Palo Alto, Calif.) were infected in 10 liter fermentors (0.5×10^6 /ml) with the recombinant baculovirus stock, such that the multiplicity of infection was 0.1. After 72 hours, the cells were centrifuged and the cell pellet was homogenized in Tris/Sucrose (50 mM: 25%, pH 8.0) containing 1% CHAPS. The homogenate was centrifuged at 10,000×G for 30 minutes, and the resultant supernatant was stored at -80° C. before being assayed for COX activity.
(§4) b. Assay for COX-I and COX-II activity:
(§5) COX activity was assayed as PGE2 formed/μg protein/time using an ELISA (Caymen Chemical, Ann Arbor, Mich.) to detect the prostaglandin E2 released. CHAPS-solubilized insect cell membranes containing the appropriate COX enzyme were incubated in a potassium phosphate buffer (50 mM, pH 8.0) containing phenol (0.5 mM), and heme (1 μM) with the addition of arachidonic acid (10 μM). Compounds of the present invention were pre-incubated with the enzyme for 10-20 minutes prior to the addition of the COX-I and COX-II enzyme substrate arachidonic acid (10 μM). Any reaction between the arachidonic acid and the enzyme was stopped after ten minutes at 37° C./room temperature by transferring 40 μl of reaction mix into […] ELISA buffer and 25 μM indomethacin. The PGE2 formed was measured by standard ELISA technology (Cayman Chemical, Ann Arbor, Mich.).
(§6) The results for this assay, as well as for the next assay (COX-II Cell Fibroblast Assay) are expressed in terms of COX-I or II activity as an IC50 value (50% inhibitory concentration), as defined as the amount of prostaglandin E2 (PGE2) formed per protein per time in response to the enzyme substrate arachidonic acid.

COX-I = molecular target: T2, COX-I (Homo sapiens, UniProt P23219); assay: Human Enzyme Assay, recombinant COX-I (PGE2 ELISA); format: biochemical
T2 construct: made in house; host or cells: SF9 insect cells, recombinant baculovirus (pVL1393); coding fragment from Cayman Chemical
T2 sequence (P23219 24-599): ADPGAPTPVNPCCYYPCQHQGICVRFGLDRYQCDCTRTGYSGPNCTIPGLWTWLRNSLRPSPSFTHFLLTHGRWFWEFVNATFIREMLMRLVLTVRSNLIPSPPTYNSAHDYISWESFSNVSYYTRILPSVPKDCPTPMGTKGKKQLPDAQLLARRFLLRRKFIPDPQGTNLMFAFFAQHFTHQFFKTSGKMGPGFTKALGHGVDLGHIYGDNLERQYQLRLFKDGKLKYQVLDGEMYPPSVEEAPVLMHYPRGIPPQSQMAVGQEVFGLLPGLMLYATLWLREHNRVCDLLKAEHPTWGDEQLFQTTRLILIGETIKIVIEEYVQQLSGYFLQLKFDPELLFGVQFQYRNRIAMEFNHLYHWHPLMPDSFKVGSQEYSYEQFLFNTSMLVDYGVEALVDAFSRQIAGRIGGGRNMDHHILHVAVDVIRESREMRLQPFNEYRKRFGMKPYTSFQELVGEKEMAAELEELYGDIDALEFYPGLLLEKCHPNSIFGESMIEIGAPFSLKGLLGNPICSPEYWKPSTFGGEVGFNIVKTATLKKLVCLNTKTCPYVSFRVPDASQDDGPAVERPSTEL
Protocol: as §1, §2, §3, §4, §5, §6

cellular COX-II = molecular target: T3, cellular COX-II (Homo sapiens, UniProt P35354); assay: Cellular COX-II Assay (Cell Fibroblast Assay), IL-1 stimulated human fetal dermal fibroblasts, PGE2; format: cell-based; settings: IL-1 beta stimulated human fetal dermal fibroblasts
T3 construct: stimulated human fetal dermal fibroblasts (HFDF, derived from primary cell cultures); endogenous in cells; host or cells: human fetal dermal fibroblasts (HFDF), primary, stimulated with IL-1 beta
T3 sequence (P35354 18-604): T1 sequence (P35354 18-604)
Protocol: The compounds of the invention are evaluated with respect to the inhibition of cellular COX-II in vitro according to the following Cellular COX-II Assay (Cell Fibroblast Assay).
Cellular COX-II Assay (Cell Fibroblast Assay)
Inhibition of cellular COX-II by test compounds is determined using stimulated human fetal dermal fibroblasts (HFDF, derived from primary cell cultures). Fibroblasts are cultured in microtiter wells at 1.5×10^4 cells/well in Dulbecco's Modified Eagle's Media (DMEM)(Gibco/BRL, Gaithersburg, Md. Sigma Chemical Co., St. Louis, Mo.) containing 4500 mg glucose/L, 100 units penicillin G/ml and 0.1 mg streptomycin/ml, 4 mM L-glutamine, 25 mM Hepes and 10% Fetal Bovine Serum (Gibco/BRL, Gaithersburg, Md. Bioproducts For Science, Inc., Indianapolis,Ind.). Following a 3-day incubation at 37° C., the culture media is removed by aspiration using low vacuum, and the cells are stimulated overnight with medium containing human recombinant IL-1 (interleukin-1) beta (1 ng/ml)(Cistron, Pine Brook, N.J.). The next day, the fibroblasts are washed with Phosphate Buffered Saline, and 185 μl of DMEM is added to each well. The cells are placed in a 37° C. incubator for 15 minutes. Compounds are then added to the cells using seven half-log dilutions in duplicate determinations. Cells are incubated with test compounds at 37° C. for 30 minutes. The COX-II substrate arachidonic acid (20 μM; Nu-Chek-Prep Inc., Elysian, Minn.) is then added to the cell cultures and the plates are incubated for 10 minutes at 37° C. Supernatants are collected and Prostaglandin E2 (PGE2) production is measured by an enzyme-linked immunosorbent assay (ELISA; antibodies produced by Cayman Chemical Company, Ann Arbor, Mich.). […] PG,60
The following is a description of how the activities of the compounds of the present invention may be determined.
A run of this assay consists of one (or more) plates, each containing, along with the standard (in row A), (1) two wells of unstimulated material (in col. 12), (2) five wells of stimulated material (in col. 12), (3) seven wells (one per concentration) for indomethacin (in col. 11), and (4) two wells at each of seven concentrations for five test compounds, one of which is a repeat of indomethacin. The response (ng/ml Eicosanoid) is estimated from the Standard curve and is highest at low concentrations and decreases as the concentration increases. If the response is plotted on the y-axis and the log of the concentration is plotted on the x-axis, the dose-response pattern for these assays is typically a symmetrical, sigmoidal shaped curve. If a full range of concentrations is used, the complete sigmoidal curve may be seen, starting with an upper asymptote, falling at some degree of steepness, and then leveling off at a lower asymptote. The IC50 is defined as the concentration corresponding to a response midway between the upper and lower plateaus. A theoretic "dose-response" model is used to estimate the IC50.
The procedure described below was used to define the minimum and maximum responses for the compounds on a plate.
The procedure uses information for indomethacin and the rest of the plate in defining the minimum and maximum response. The justification for doing this is as follows. Enough runs have been done with indomethacin to determine and use a range of concentrations such that the response to the lowest concentrations is on the upper plateau of the sigmoidal curve and the response to the highest concentrations is on the lower plateau of the sigmoidal curve. For the other compounds, if a response is measured which is less than the response for the unstimulated wells, then this response may be considered to be another estimate of a minimal response. Likewise, if a response is measured which is greater than the response for the stimulated wells, then this response may be considered to be another estimate of a maximal response. Based on this reasoning, the minimum is estimated as follows: […]

Row | Compound | pIC50 (COX-II) | pIC50 (COX-I) | pIC50 (cellular COX-II)
1 | CC(C)(C)c1cc(S[C@@H]2CCC[C@H]2OCC(=O)O)cc(C(C)(C)C)c1 (relative stereo) [Example 76, (±)trans-2-[[2-[[3,5-bis(1,1-dimethylethyl)phenyl]thio]cyclopentyl]oxy]acetic acid] | < 4.00 | < 4.00 | 5.25
2 | CC(C)(C)c1cc(S[C@H]2CCC[C@H]2OCC(=O)O)cc(C(C)(C)C)c1 (relative stereo) [Example 77] | 5.29 | < 4.00 | 6.77
3 | CC(C)(C)c1ccc(O[C@@H]2CCC[C@H]2OCC(=O)O)c(C(C)(C)C)c1 (relative stereo) [Example 101, trans-2-[[2-[2,4-bis(1,1-dimethylethyl)phenoxy]cyclopentyl]oxy]acetic acid] | < 4.00 | < 4.00 | 6.08
4 | CC(C)(C)c1cc(S[C@H]2CCC[C@H]2OCC(=O)O)cc(C(C)(C)C)c1 (single isomer, unassigned) [Example 84, (+)cis-2-[[2-[[3,5-bis(1,1-dimethylethyl)phenyl]thio]cyclopentyl]oxy]aceticacid] | 5.43 | < 4.00 | 6.38
5 | CC(C)(C)c1cc(S[C@@H]2CCCC[C@H]2OCC(=O)O)cc(C(C)(C)C)c1 (single isomer, unassigned) [Example 89, (-)trans-2-[[2-[[3,5-bis(1,1-dimethylethyl)phenyl]thio]cyclohexyl]oxy]acetic acid] | 5.47 | < 4.00 | 6.24
6 | CC(C)(C)c1ccc(S[C@@H]2CCC[C@H]2OCC(=O)O)c(C(C)(C)C)c1 (single isomer, unassigned) [Example 92, (+)trans-2-[[2-[[2,4-bis(1,1-dimethylethyl)phenyl]thio]cyclopentyl]oxy]acetic acid] | 5.41 | < 4.00 | 6.61
7 | CC(C)(C)c1ccc(S[C@@H]2CCC[C@H]2OCC(=O)O)c(C(C)(C)C)c1 (single isomer, unassigned) [Example 93, (-)trans-2-[[2-[[2,4-bis(1,1-dimethylethyl)phenyl]thio]cyclopentyl]oxy]acetic acid] | 5.12 | < 4.00 | 6.48

Now those with a higher pIC50 (COX-II), led by results:

Row | pIC50 (COX-II) | pIC50 (COX-I) | pIC50 (cellular COX-II) | Compound
8 | 6.03 | 4.55 | 6.22 | CC(C)(C)c1ccc(S[C@H]2CCC[C@H]2OCC(=O)O)c(C(C)(C)C)c1 (racemic) [Example 80, (±)cis-2-[[2-[[2,4-bis(1,1-dimethylethyl)phenyl]thio]cyclopentyl]oxy]acetic acid]
9 | 5.84 | 4.02 | 6.36 | CC(C)(C)c1ccc(S[C@@H]2CCC[C@H]2OCC(=O)O)c(C(C)(C)C)c1 (racemic) [Example 81, (±)trans-2-[[2-[[2,4-bis(1,1-dimethylethyl)phenyl]-thio]cyclopentyl]oxy]acetic acid]
10 | 5.60 | – | 6.79 | CC(C)(C)c1cc(S[C@H]2CCC[C@H]2OCC(=O)O)cc(C(C)(C)C)c1 (single isomer, unassigned) [Example 85, (-)cis-2-[[2-[[3,5-bis(1,1-dimethylethyl)phenyl]thio]cyclopentyl]oxy]aceticacid]
11 | 5.70 | 4.04 | 6.64 | CC(C)(C)c1ccc(S[C@H]2CCC[C@H]2OCC(=O)O)c(C(C)(C)C)c1 (single isomer, unassigned) [Example 97, (-)cis-2-[[2-[[2,4-bis(1,1-dimethylethyl)phenyl]thio]cyclopentyl]oxy]aceticacid]
